Laboratory results taken from PubChem BioAssay (NCI).
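How tested: cells in 96-well plates exposed to compound for 48 hours at five concentrations. GI50 is the concentration that inhibits growth by half. TGI: total growth inhibition.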

Experiments:
Assay in all cases: inhibition of tumour cell growth, NCI panel, 48 h
[1] = system: 786-0 renal
[2] = system: A498 renal
[3] = system: A549 NSCLC
[4] = system: ACHN renal
[5] = system: BT-549 breast
[6] = system: CAKI-1 renal
[7] = system: CCRF-CEM leukemia
[8] = system: COLO 205 colon
[9] = system: DU-145 prostate
[10] = system: EKVX NSCLC
[11] = system: HCC-2998 colon
[12] = system: HCT-116 colon
[13] = system: HCT-15 colon
[14] = system: HL-60(TB) leukemia
[15] = system: HOP-62 NSCLC
[16] = system: HOP-92 NSCLC
[17] = system: HS 578T breast
[18] = system: HT29 colon
[19] = system: IGROV1 ovarian
[20] = system: K-562 leukemia
[21] = system: KM12 colon
[22] = system: LOX IMVI melanoma
[23] = system: M14 melanoma
[24] = system: MALME-3M melanoma
[25] = system: MCF7 breast
[26] = system: MDA-MB-231 breast
[27] = system: MOLT-4 leukemia
[28] = system: NCI-H226 lung
[29] = system: NCI-H23 lung
[30] = system: NCI-H460 lung
[31] = system: NCI-H522 lung
[32] = system: NCI/ADR-RES ovarian
[33] = system: OVCAR-3 ovarian
[34] = system: OVCAR-4 ovarian
[35] = system: OVCAR-5 ovarian
[36] = system: OVCAR-8 ovarian
[37] = system: PC-3 prostate
[38] = system: RPMI-8226 leukemia
[39] = system: RXF 393 renal
[40] = system: SF-268 CNS
[41] = system: SF-295 CNS
[42] = system: SF-539 CNS
[43] = system: SK-MEL-2 melanoma
[44] = system: SK-MEL-5 melanoma
[45] = system: SK-OV-3 ovarian
[46] = system: SN12C renal
[47] = system: SNB-19 CNS
[48] = system: SNB-75 CNS
[49] = system: SR leukemia
[50] = system: SW-620 colon
[51] = system: TK-10 renal
[52] = system: U251 CNS
[53] = system: UACC-62 melanoma
[54] = system: UO-31 renal

COC(=O)[C@@H](C)C[C@H](Cc1ccccc1)NC(=O)c1nc([C@@H](C[C@H](C(C)C)N(C)C(=O)[C@@H](NC(=O)[C@H]2CCCCN2C)C(C)C)OC(C)=O)sc1C(C)C was tested, and the GI50 [1] was < 3.33 nM, the TGI [1] was 1060 nM and the GI50 [2] was < 3.33 nM. The TGI [2] was 7.76 nM, the GI50 [3] was 18.7 nM and the TGI [3] was 15.7 µM. The GI50 [4] was < 3.33 nM, the TGI [4] was 7.06 µM and the GI50 [5] was < 3.33 nM. The TGI [5] was 83.7 nM, the GI50 [6] was 4.83 nM and the TGI [6] was 5.53 µM. For the same compound, the GI50 [7] was 7.93 nM, the TGI [7] was > 33.3 µM and the GI50 [8] was 5.22 nM. The TGI [8] was 40.1 nM, the GI50 [9] was < 3.33 nM and the TGI [9] was 434 nM. The GI50 [10] was 13.5 nM, the TGI [10] was > 33.3 µM and the GI50 [11] was < 3.33 nM. The TGI [11] was 1440 nM, the GI50 [12] was < 3.33 nM and the TGI [12] was 476 nM. The GI50 [13] was 33.5 nM, the TGI [13] was 4.43 µM and the GI50 [14] was < 3.33 nM. For the same compound, the TGI [14] was < 3.33 nM, the GI50 [15] was 12.9 nM and the TGI [15] was 10.4 µM. For the same compound, the GI50 [16] was 219 nM, the TGI [16] was > 21.6 µM and the GI50 [17] was 5.03 nM. The TGI [17] was 1340 nM, the GI50 [18] was < 3.33 nM and the TGI [18] was 583 nM. The GI50 [19] was < 3.33 nM, the TGI [19] was > 11.9 µM and the GI50 [20] was < 3.33 nM. For the same compound, the TGI [20] was 5.43 µM, the GI50 [21] was < 3.33 nM and the TGI [21] was 4.2 µM. It also gave a GI50 [22] of 7.91 nM, a TGI [22] of 3.93 µM and a GI50 [23] of 3.38 nM. For the same compound, the TGI [23] was 12.7 nM, the GI50 [24] was 42.4 nM and the TGI [24] was 5.81 µM. For the same compound, the GI50 [25] was < 3.33 nM, the TGI [25] was > 25.6 µM and the GI50 [26] was 9.02 nM. The TGI [26] was 2200 nM, the GI50 [27] was 13.9 nM and the TGI [27] was 14.5 µM. It also gave a GI50 [28] of 12.2 nM, a TGI [28] of 1370 nM and a GI50 [29] of 9.65 nM. For the same compound, the TGI [29] was 16.1 µM, the GI50 [30] was 4.5 nM and the TGI [30] was 3.52 µM. The GI50 [31] was < 3.33 nM, the TGI [31] was 55 nM and the GI50 [32] was 216 nM. The TGI [32] was > 7.8 µM, the GI50 [33] was < 3.33 nM and the TGI [33] was 70.3 nM. For the same compound, the GI50 [34] was 10.3 nM, the TGI [34] was > 33.3 µM and the GI50 [35] was 13.6 nM. It also gave a TGI [35] of 16 µM, a GI50 [36] of 7.92 nM and a TGI [36] of 8.62 µM. The GI50 [37] was < 3.33 nM, the TGI [37] was > 33.3 µM and the GI50 [38] was < 3.33 nM. For the same compound, the TGI [38] was 6.96 µM, the GI50 [39] was < 3.33 nM and the TGI [39] was 7.78 µM. The GI50 [40] was 18.4 nM, the TGI [40] was 7.72 µM and the GI50 [41] was < 3.33 nM. For the same compound, the TGI [41] was 276 nM, the GI50 [42] was 7 nM and the TGI [42] was 24.2 nM. For the same compound, the GI50 [43] was 5.03 nM, the TGI [43] was 5.73 µM and the GI50 [44] was < 3.33 nM. The TGI [44] was 44.9 nM, the GI50 [45] was < 3.33 nM and the TGI [45] was 33.1 µM. The GI50 [46] was 7.65 nM, the TGI [46] was 4.51 µM and the GI50 [47] was < 3.33 nM. For the same compound, the TGI [47] was > 33.3 µM, the GI50 [48] was 3.88 nM and the TGI [48] was 9.38 µM. The GI50 [49] was < 3.33 nM, the TGI [49] was > 15 µM and the GI50 [50] was < 3.33 nM. For the same compound, the TGI [50] was > 25.7 µM, the GI50 [51] was 117 nM and the TGI [51] was 14.4 µM. For the same compound, the GI50 [52] was 12 nM, the TGI [52] was 8.51 µM and the GI50 [53] was < 3.33 nM. For the same compound, the TGI [53] was 32.6 µM, the GI50 [54] was 15.4 nM and the TGI [54] was 5.37 µM.
